Data taken from PubChem BioAssay (NCI).
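Assay format: 96-well plates, 48-hour exposure. Definition used: TGI = concentration required for complete inhibition of growth.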

What was measured:
Experiment in all cases: NCI-60 cell line screen, 48 h
A498 renal = system: A498 renal
BT-549 breast = system: BT-549 breast
CAKI-1 renal = system: CAKI-1 renal
CCRF-CEM leukemia = system: CCRF-CEM leukemia
COLO 205 colon = system: COLO 205 colon
HOP-62 NSCLC = system: HOP-62 NSCLC
KM12 colon = system: KM12 colon
MCF7 breast = system: MCF7 breast
MDA-MB-435 = system: MDA-MB-435
NCI-H226 lung = system: NCI-H226 lung
OVCAR-8 ovarian = system: OVCAR-8 ovarian
SK-OV-3 ovarian = system: SK-OV-3 ovarian
SNB-19 CNS = system: SNB-19 CNS
SNB-75 CNS = system: SNB-75 CNS
HS 578T breast = system: HS 578T breast
OVCAR-4 ovarian = system: OVCAR-4 ovarian
SF-268 CNS = system: SF-268 CNS

Structure (SMILES)	TGI (A498 renal)	TGI (BT-549 breast)	TGI (CAKI-1 renal)	TGI (CCRF-CEM leukemia)	TGI (COLO 205 colon)	TGI (HOP-62 NSCLC)	TGI (KM12 colon)	TGI (MCF7 breast)	TGI (MDA-MB-435)	TGI (NCI-H226 lung)	TGI (OVCAR-8 ovarian)	TGI (SK-OV-3 ovarian)	TGI (SNB-19 CNS)	TGI (SNB-75 CNS)	TGI (HS 578T breast)	TGI (OVCAR-4 ovarian)	TGI (SF-268 CNS)
Nc1cc(N2CCOCC2)nc(=O)n1-c1ccc(Cl)cc1	> 100 µM	> 100 µM	> 100 µM	> 100 µM	> 100 µM	> 100 µM	> 100 µM	> 100 µM	> 100 µM	> 100 µM	> 100 µM	> 100 µM	> 100 µM	> 100 µM			
CC(=O)N/N=C1/CC[C@@]2(C)C(=CC[C@H]3C4CCC(C(C)CCCC(C)C)[C@@]4(C)CCC32)C1(C)C (stereo not given in full)		> 100 µM	> 100 µM	> 100 µM	> 100 µM	> 100 µM	> 100 µM	> 100 µM	> 100 µM	> 100 µM	> 100 µM	> 100 µM	> 100 µM	> 100 µM	> 100 µM	> 100 µM	> 100 µM
CCSC1=N/C(=C/c2ccccc2O)C(=O)N1		> 100 µM	> 100 µM	> 100 µM	> 100 µM	> 100 µM	> 100 µM	> 100 µM	> 100 µM	> 100 µM	> 100 µM	> 100 µM	> 100 µM	72.1 µM	> 100 µM		> 100 µM
COc1ccc2c(c1)CCC1=C/C(=N\NC(N)=O)CCC12C (stereo not given)		> 10 µM	> 10 µM	> 10 µM	> 10 µM	> 10 µM	> 10 µM	> 10 µM	> 10 µM		> 10 µM	> 10 µM	> 10 µM	> 10 µM	> 10 µM	> 10 µM	> 10 µM
CCOP(=O)(OCC)[C@]12C[C@@H](C)C=C[C@H]1COC2=O	> 100 µM	> 100 µM	> 100 µM	> 100 µM	> 100 µM	> 100 µM	> 100 µM	> 100 µM	> 100 µM		> 100 µM	> 100 µM	> 100 µM	> 100 µM	> 100 µM	> 100 µM	> 100 µM
CC(=O)Oc1cc(C)c(OC(C)=O)c2c1[C@H]1CC[C@]3(C)[C@@H](OC(C)=O)CC[C@H]3[C@@H]1CC2	32.8 µM	30.7 µM	31.5 µM	43.5 µM		34.4 µM	28.6 µM	36.1 µM	27.7 µM		44.7 µM		32.2 µM	52.1 µM	57 µM		47.6 µM
CC(=O)OC1CC[C@@]2(C)C(C1)CC(OC(C)=O)[C@@H]1C2CC(OC(C)=O)[C@]2(C)C(C(C)CC=C(c3ccc(Cl)cc3)c3ccc(Cl)cc3)CCC12 (stereo not given in full)				95.2 µM	> 100 µM	> 100 µM	> 100 µM	> 100 µM	> 100 µM		> 100 µM	> 100 µM	> 100 µM	> 100 µM	> 100 µM	> 100 µM	> 100 µM
CC1(C)CCC[C@]2(C)[C@@H]1CC[C@@]13O[C@@H]1C1=C(CO)C(=O)OC1=C[C@@H]23	76.8 µM	51 µM	34.2 µM		30.6 µM	49.3 µM	24.8 µM	> 100 µM	61.5 µM	30.2 µM		46.5 µM	28.7 µM	88.4 µM		55.9 µM	54.7 µM
CCCC(=O)Oc1ccc2c(C)cc(=O)oc2c1OC(=O)CCC	> 100 µM			> 100 µM	> 100 µM	> 100 µM	> 100 µM	> 100 µM	> 100 µM	> 100 µM	> 100 µM	> 100 µM	> 100 µM	> 100 µM	> 100 µM	> 100 µM	> 100 µM
NC(=S)N/N=c1\cc(C(=O)Nc2ccc([N+](=O)[O-])cc2[N+](=O)[O-])oc2ccccc12		> 100 µM	> 100 µM	> 100 µM	> 100 µM	> 100 µM	> 100 µM	> 100 µM	> 100 µM	> 100 µM	> 100 µM	> 100 µM	> 100 µM	> 100 µM	> 100 µM	> 100 µM	> 100 µM
Cc1n[nH]c(=O)n1/N=C/c1ccncc1	> 100 µM		> 100 µM	> 100 µM	> 100 µM	> 100 µM	> 100 µM		> 100 µM	> 100 µM	> 100 µM	> 100 µM	> 100 µM	> 100 µM	> 100 µM	> 100 µM	> 100 µM
Cn1c(=O)cc(NCCc2ccccc2)[nH]c1=O	> 100 µM	> 100 µM	> 100 µM	> 100 µM	> 100 µM	> 100 µM	> 100 µM	> 100 µM		> 100 µM	> 100 µM	> 100 µM	> 100 µM	> 100 µM	50.7 µM	> 100 µM	> 100 µM
CC(C)c1cccc(C(=O)NCCN(C)C)c1[N+](=O)[O-]	> 100 µM	97.4 µM	> 100 µM	> 100 µM	> 100 µM	> 100 µM	> 100 µM	> 100 µM	> 100 µM	> 100 µM	> 100 µM	> 100 µM	> 100 µM	> 100 µM	> 100 µM		> 100 µM
O=[N+]([O-])C(=C(Nc1ccccc1)Nc1ccccc1)/C(Cl)=C(\Cl)Br	35.6 µM	60.5 µM		6.44 µM		55.1 µM	26.2 µM	33.9 µM		14.4 µM	37 µM			28.4 µM	> 100 µM	27.3 µM	43.1 µM
CC(=O)C(=[N+]=[N-])C(=O)OCCOC(=O)C(=[N+]=[N-])C(C)=O	> 1 µM	> 1 µM		> 1 µM		> 1 µM	> 1 µM	> 1 µM	> 1 µM	> 1 µM	> 1 µM	> 1 µM	> 1 µM	> 1 µM	> 1 µM		> 1 µM
